Active and inactive are the calls of the source.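 The calls were made as follows: active = chemicals shown by follow-up kinetic tests to compete for rat estrogen receptor sites, with a measured inhibition constant; inconclusive = some binding seen but constant unmeasurable owing to poor solubility; inactive = no binding up to top dose, or binding unconfirmed.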
Each molecule was assayed against Estrogen receptor (Rattus norvegicus) (UniProt P06211) (assay: DSSTox (KIERBL) EPA Estrogen Receptor Ki Binding Study (Laws et al.) Database). Conditions: Rat uterine cytosol ER, 3H-estradiol competitive binding.
Estrogen receptor (Rattus norvegicus), sequence (P06211 whole entry, looked up): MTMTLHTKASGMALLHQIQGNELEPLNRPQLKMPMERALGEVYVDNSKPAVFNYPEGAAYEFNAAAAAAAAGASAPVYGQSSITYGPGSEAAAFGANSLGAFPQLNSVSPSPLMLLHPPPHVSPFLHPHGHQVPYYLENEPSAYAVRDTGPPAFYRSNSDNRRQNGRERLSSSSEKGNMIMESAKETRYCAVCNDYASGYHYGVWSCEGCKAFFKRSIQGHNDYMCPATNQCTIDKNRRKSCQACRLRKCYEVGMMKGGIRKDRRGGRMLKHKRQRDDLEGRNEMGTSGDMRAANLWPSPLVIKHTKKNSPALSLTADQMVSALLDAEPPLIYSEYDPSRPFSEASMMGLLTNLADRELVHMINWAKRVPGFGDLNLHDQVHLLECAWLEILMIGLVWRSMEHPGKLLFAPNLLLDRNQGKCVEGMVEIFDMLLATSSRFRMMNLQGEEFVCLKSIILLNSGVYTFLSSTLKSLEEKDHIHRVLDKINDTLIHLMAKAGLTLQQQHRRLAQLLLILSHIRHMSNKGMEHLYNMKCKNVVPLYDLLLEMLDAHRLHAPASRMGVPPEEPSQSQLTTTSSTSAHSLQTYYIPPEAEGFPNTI
Protocol: This study was conducted by EPA researchers to evaluate the validity of the rat uterine cytosolic (RUC) estrogen receptor (ER) competitive binding assay for use in the Endocrine Disruption Screening Program (EDSP). The assay measures the ability of radiolabeled 17-beta-estradiol (3H-E2) to bind with RUC ER in the presence of increasing concentrations of a test chemical. The goal is to employ this in vitro assay as a 1st tier screening tool for assessing the potential of structurally diverse environmental chemicals to bind to the ER, as well as to support research efforts to develop computational models to predict ER binding. A distinguishing feature of the present study was the use of secondary experimental analysis of binding curves and determination of Ki values to confirm that measured IC50 values corresponded to true positive results. The study concluded that a number of experimental conditions can confound interpretation of IC50 values obtained from the RUC ER-binding assay data and lead to false positive results. In particular, some chemical treatments likely alter the stability of the assay by changing the buffer pH, denaturing ER, or disrupting the ER binding kinetics. […] The chemicals used in this study were selected as part of a validation test for two Quantitative Structure-Activity Relationship (QSAR) models designed to predict ER binding [Fed. Reg. 67(250), 79618, Dec. 30, 2002]. Several hundred chemicals were initially screened, including approximately 100 chemicals selected from among the High Production Volume (HPV) chemicals included in EPA's Toxic Substances Control Act (TSCA) inventory that were predicted to be positive for ER binding, with the rest selected at random from the TSCA inventory. All chemicals were initially tested in ER competitive binding assays by Battelle Pacific Northwest Laboratories, Richland, Washington [EPA Contract Number 68-W-99-033, Task 6]. Approximately 50 chemicals produced binding curves that: (1) strongly implied competitive inhibition of ER binding, or (2) produced partial curves or irregular (non-sigmoid) binding curves. These chemicals were further evaluated in an ER competitive binding assay with secondary analysis to confirm true competitive inhibition and to determine an experimental Ki [U.S. EPA Contract 3D-5967-NTEX]. The results of RUC ER screening for these 50 structurally diverse chemicals, for which secondary confirmatory analyses were performed, were published in the Main Citation (Laws et al., 2006, Tox. Sci. 94:46-56). The remaining 228 chemicals were designated as non-binders based on initial screening studies.
The DSSTox KIERBL data files include all published IC50 and Ki experimental results for the 50 chemicals included in the Main Citation (Laws et al., 2006) (denoted Group 1), as well as previously unpublished results for an additional 228 structually diverse TSCA chemicals for which no ER binding was observed (denoted Group 2. IC50 values were determined for 32 compounds in Group 1 as the concentration of a test chemical that inhibits the maximal specific binding of 0.33 nM radiolabeled (3H) 17-beta-estradiol (E2) to rat uterine cytosolic (RUC) estrogen receptor (ER) by 50%. Confirmation of binding status was accomplished by secondary analysis using Lineweaver-Burk plots and slope replots to determine true competitive inhibition and an experimental Ki value. Ki is the inhibition constant for the test chemical, i.e., the concentration of the test chemical that will bind to half the binding sites at equilibrium (displacing half of the probe-bound receptors), in the absence of radioligand or other competitors. Ki reported as Mean +/- Standard Error from n=2 experiments (see StandardError_Ki_n2) and is determined from Lineweaver-Burk plots over the tested dose range (TestedRange_microM). For more information see BindingCurve_Group and BindingCurve_Details. […]
With `O=NN(c1ccccc1)c1ccccc1` the outcome was “inactive; none”. For `CCC(C)N` (stereo unspecified), the outcome was “inactive; none”. `CCO[Si](C)(CCCN)OCC` was tested, and the outcome was “inactive; none”. In the case of `Nc1c(N=Nc2ccc([N+](=O)[O-])cc2)c(S(=O)(=O)O)cc2cc(S(=O)(=O)O)c(N=Nc3ccccc3)c(O)c12`, the outcome is reported as “inactive; none”. In the case of `CC1COc2ccccc2N1C(=O)C(Cl)Cl` (stereo unspecified), the outcome is reported as “inactive; none”. `Cc1ccc(C(=O)c2ccccc2)cc1` was tested, and the outcome was “inactive; incomplete”. For `CCCCCCOc1ccccc1C(=O)O`, the outcome was “inactive; none”. `CCCCCOC(C)=O` was tested, and the outcome was “inactive; none”. With `O=C(O)c1c(Cl)c(Cl)c(Cl)c(Cl)c1C1c2cc(Br)c(O)c(Br)c2Oc2c1cc(Br)c(O)c2Br` the outcome was “inactive; none”. `Cc1cscn1` was tested, and the outcome was “inactive; none”. In the case of `O=[N+]([O-])c1c(Cl)c(Cl)c(Cl)c(Cl)c1Cl`, the outcome is reported as “inactive; none”. With `CCO[Si](CCCCl)(OCC)OCC` the outcome was “inactive; none”. With `CCCCCN(CCCCC)CCCCC` the outcome was “inactive; none”. For `N#CCc1ccccc1`, the outcome was “inactive; none”. In the case of `O=C(O)CC(O)(CC(=O)O)C(=O)O`, the outcome is reported as “inactive; none”. For `O=C(Oc1ccccc1)c1ccccc1O`, the outcome was “inactive; incomplete”.

From PubChem BioAssay AID1576 (EPA DSSTox, 2009)
